What was measured:
[1] = tested on: DNFB-induced mouse allergic dermatitis model; assay: DNFB-induced mouse allergic dermatitis model; assay type: in vivo; conditions: BALB/c mice; 10 mg/kg orally one hour before induction; 24th hour after induction; vs vehicle, Student's t-test P<0.05
Procedure: Using increase in the ear swelling rate as an index of exacerbation of symptoms, the effect of the cyclic amine derivative (I) or a pharmacologically acceptable salt thereof in a DNFB-induced mouse allergic dermatitis model was evaluated. The DNFB-induced mouse allergic dermatitis model was prepared by a partially modified method by Curzytek et al. (Pharmacological Reports, 2013, Vol. 65, p. 123′7-1246).
BALB/c mice (female, 6 weeks old) (Charles River Laboratories Japan, Inc.) were used at 7 weeks old after preliminary breeding. To the back of the mice, 25 μL of a 0.5 v/v % DNFB solution dissolved in acetone:olive oil (4:1) was applied. The next day, the same operation was repeated to sensitize the mice. Four days after the sensitization, 10 μL each of a 0.2 v/v % DNFB solution dissolved in acetone:olive oil (4:1) was applied to both sides of the right auricle of the sensitized mice to induce inflammation.
One hour before induction, the compound of Example 20, the compound of Example 29, or the compound of Example 57 was administered at a dose of 10 mg/kg to the mice. The compound of Example 20, the compound of Example 29, and the compound of Example 57 were suspended in a 0.5 w/v % methylcellulose solution and orally administered. The group in which the compound of Example 20 was administered to mice was defined as the Example-20 compound administration group, the group in which the compound of Example 29 was administered was defined as the Example-29 compound administration group, and the group in which the compound of Example 57 was administered was defined as the Example-57 compound administration group. […]
The right ear thickness before application of the DNFB solution (before induction) on the induction day and the right ear thickness at the 24th hour after induction were measured with a digital micrometer (Mitutoyo Corporation). The swelling rate of the auricle was calculated by Formula 3 and used as an index of the drug efficacy evaluation. […]

[2] = tested on: mouse experimental autoimmune encephalomyelitis model; assay: Mouse experimental autoimmune encephalomyelitis model; assay type: in vivo; conditions: C57BL/6J mice, vs vehicle
Procedure: Using increase in the neurological symptom score as an index of exacerbation of symptoms, the effect of the cyclic amine derivative (I) or a pharmacologically acceptable salt thereof in a mouse experimental autoimmune encephalomyelitis model was evaluated. The mouse experimental autoimmune encephalomyelitis model was prepared by a partially modified method by Hindinger et al. (Journal of Neuroscience Research, 2006, Vol. 84, p. 1225-1234).
A total of 0.1 mL (0.05 mL on each side) of an MOG35-55 administration solution prepared by mixing a PBS solution containing partial synthetic peptides of myelin oligodendrocyte glycoproteins (MOG35-55; CSBio, Inc.) prepared to a concentration of 4 mg/mL with Freund's complete adjuvant at equal amount was intradermally inoculated to both flank sides of C57BL/6J mice (male, 8 weeks old) (Charles River Laboratories Japan, Inc.). Furthermore, 200 μL of pertussis toxin (Sigma-Aldrich Japan) prepared to a concentration of 1 μg/mL was intraperitoneally administered to the mice on the day of inoculation and 2 days after inoculation of the MOG35-55 administration solution.
After inoculation of the MOG35-55 administration solution, the test compound was administered to the mice. As the test compound, the compound of Example 20, the compound of Example 29, and the compound of Example 57 were used. The compound of Example 20 was suspended in a 0.5 w/v % methylcellulose solution and orally administered once daily at a dose of 3 mg/kg every day from 2 days after inoculation of the MOG35-55 administration solution. […]
After inoculation of the MOG35-55 administration solution, the neurological symptom scores in the groups in which test compound was administered and the corresponding vehicle administration groups were scored (0: normal, 1: limp tail or hind limb weakness, 2: limp tail and hind limb weakness, 3: partial hind limb paralysis, 4: complete hind limb paralysis, 5: moribund state). […]

Structure (SMILES) | ear swelling rate (%) [1] | increase in the neurological symptom score ([2]; 3 mg/kg orally once daily from 2 days after MOG35-55 inoculation, score on the 13th day, Wilcoxon test P<0.05 (FIG. 1)) | increase in the neurological symptom score ([2]; 1 mg/kg orally once daily from 13 days after MOG35-55 inoculation, score on the 23rd day, Wilcoxon test P<0.05 (FIG. 2)) | increase in the neurological symptom score ([2]; 1 mg/kg orally once daily from 13 days after MOG35-55 inoculation, score on the 30th day, Wilcoxon test P<0.05 (FIG. 3))
CC(=O)N1CCCC[C@@H]1C(=O)Nc1ccc(-c2ccccc2OC(F)(F)F)c(Cl)c1 [Example 20, (R)-1-acetyl-N-(2-chloro-2′-(trifluoromethoxy)-[1,1′-biphenyl]-4-yl)piperidine-2-carboxamide] | statistically significantly suppressed | statistically significantly suppressed |  | 
CN(CC(=O)N1CCCC[C@@H]1C(=O)Nc1ccc(-c2ccccc2OC(F)(F)F)c(Cl)c1)S(C)(=O)=O [Example 29, (R)-N-(2-chloro-2′-(trifluoromethoxy)-[1,1′-biphenyl]-4-yl)-1-(2-(N-methylmethylsulfonamide)acetyl)piperidine-2-carboxamide] | statistically significantly suppressed |  | statistically significantly suppressed | 
O=C(Nc1ccc(-c2ccccc2OC(F)(F)F)c(Cl)c1)[C@H]1CCCCN1C(=O)Cn1cnnn1 [Example 57, (R)-1-(2-(1H-tetrazol-1-yl)acetyl)-N-(2-chloro-2′-(trifluoromethoxy)-[1,1′-biphenyl]-4-yl)piperidine-2-carboxamide] | statistically significantly suppressed |  |  | statistically significantly suppressed

From patent publication US10364222B2, “Cyclic amine derivative and medical use thereof” (Toray Industries, Inc., priority 2016, dated 2019)
